Measured values from patent publication US20260365671A1, “HETEROCYCLIC COMPOUND” (Takeda Pharmaceutical Company Limited, priority 2022, published 2026).

Legend:
NLRP3 inflammasome = molecular target: T1, NLRP3 inflammasome (Homo sapiens, UniProt Q96P20); assay: IL-1β TR-FRET assay (THP-1 cells differentiated to macrophages with IFN-γ, LPS primed, ATP activated; HTRF); type: cell-based; conditions: THP-1 macrophages, 50 ng/mL LPS priming, compound 30 min, 20 mM ATP 2 hours
T1 construct: IL-1beta HTRF
Method in brief: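 THP-1 cells differentiated with 25 ng/mL IFN-γ for 24 h, primed with 50 ng/mL LPS in serum-free medium for 24 h, then treated with compounds for 30 min before 20 mM ATP activation for 2 h at 37 °C. Secreted IL-1β quantified by HTRF; IC50 from logistic fit of % inhibition.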

NF-κB pathway = assay: TNF-α assay (THP-1 cells differentiated to macrophages with IFN-γ, NF-κB pathway activated with LPS; ELISA); type: cell-based, Human; conditions: compound 30 min, 50 ng/mL LPS 3 hours
Method in brief: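 THP-1 cells differentiated with 25 ng/mL IFN-γ for 24 h, then 30 min with compounds in serum-free medium. NF-κB activated with 50 ng/mL LPS, 3 h at 37 °C. Supernatant TNF-α by ELISA; IC50 from four-parameter logistic fit of % inhibition.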

[1] = Homo sapiens, THP-1, THP-1 macrophages

T1 sequence (Q96P20 whole entry): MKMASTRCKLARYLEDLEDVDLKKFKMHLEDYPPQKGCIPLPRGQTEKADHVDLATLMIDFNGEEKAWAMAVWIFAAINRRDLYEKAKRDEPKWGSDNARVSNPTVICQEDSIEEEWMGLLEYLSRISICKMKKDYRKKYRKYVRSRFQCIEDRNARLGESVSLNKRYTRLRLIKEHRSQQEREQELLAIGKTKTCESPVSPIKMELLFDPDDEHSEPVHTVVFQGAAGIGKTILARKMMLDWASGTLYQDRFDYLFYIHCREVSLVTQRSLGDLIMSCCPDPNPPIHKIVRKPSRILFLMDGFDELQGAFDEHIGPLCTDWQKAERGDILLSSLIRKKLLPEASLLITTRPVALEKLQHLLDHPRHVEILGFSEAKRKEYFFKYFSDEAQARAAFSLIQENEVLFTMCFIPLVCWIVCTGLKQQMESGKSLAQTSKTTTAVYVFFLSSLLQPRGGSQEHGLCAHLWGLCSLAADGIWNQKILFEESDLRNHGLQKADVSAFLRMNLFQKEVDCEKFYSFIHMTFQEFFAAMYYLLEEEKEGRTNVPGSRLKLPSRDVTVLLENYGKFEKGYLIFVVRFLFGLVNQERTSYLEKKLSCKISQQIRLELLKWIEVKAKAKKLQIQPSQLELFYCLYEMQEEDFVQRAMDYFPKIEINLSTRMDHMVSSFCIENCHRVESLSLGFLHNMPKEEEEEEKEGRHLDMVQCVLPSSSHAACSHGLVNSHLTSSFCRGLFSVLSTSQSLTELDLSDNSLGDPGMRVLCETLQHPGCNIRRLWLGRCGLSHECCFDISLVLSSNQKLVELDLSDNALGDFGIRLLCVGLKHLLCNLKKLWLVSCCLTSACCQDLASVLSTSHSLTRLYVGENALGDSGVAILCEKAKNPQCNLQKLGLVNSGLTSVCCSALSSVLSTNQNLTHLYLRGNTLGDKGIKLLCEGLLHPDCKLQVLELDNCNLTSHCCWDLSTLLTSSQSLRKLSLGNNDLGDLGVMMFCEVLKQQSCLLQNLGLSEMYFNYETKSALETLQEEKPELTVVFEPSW

| Structure (SMILES) | IC50 (NLRP3 inflammasome) [nM] | IC50 (NF-κB pathway; [1]) [µM] | IC50 (NF-κB pathway; THP-1 macrophages) [µM] |
| --- | --- | --- | --- |
| Cc1cc(C)c(-n2cc3sc(NC4CCN(C(=O)C5CC5)C4)nc3n2)c(O)c1 (centres unmarked) [Example 96, cyclopropyl(3-{[2-(2-hydroxy-4,6-dimethylphenyl)-2H-pyrazolo[3,4-d][1,3]thiazol-5-yl]amino}pyrrolidin-1-yl)methanone] | 400 | > 30 | – |
| Cc1cc(C)c(-n2cc3sc(NCC(F)(F)CO)nc3n2)c(O)c1 [Example 152, 2-{5-[(2,2-difluoro-3-hydroxypropyl)amino]-2H-pyrazolo[3,4-d][1,3]thiazol-2-yl}-3,5-dimethylphenol] | 280 | > 30 | – |
| Cc1cc(C)c(-n2cc3sc(NCC(F)F)nc3n2)c(O)c1 [Example 146, 2-{5-[(2,2-difluoroethyl)amino]-2H-pyrazolo[3,4-d][1,3]thiazol-2-yl}-3,5-dimethylphenol] | 380 | > 30 | – |
| Cc1cc(Cl)cc(O)c1-n1cc2sc(N[C@@H]3CCCN(C)C3)nc2n1 [Example 2, 5-chloro-3-methyl-2-(5-{[(3R)-1-methylpiperidin-3-yl]amino}-2H-pyrazolo[3,4-d][1,3]thiazol-2-yl)phenol] | 1.6 | > 30 | – |
| CN1CCC[C@@H](Nc2nc3nn(-c4ccc(Br)cc4O)cc3s2)C1 [Example 1, 5-bromo-2-(5-{[(3R)-1-methylpiperidin-3-yl]amino}-2H-pyrazolo[3,4-d][1,3]thiazol-2-yl)phenol] | 25 | > 10 | – |
| Cc1cc(C)c(-n2cc3sc(NC4(C(F)F)CC4)nc3n2)c(O)c1 [Example 147, 2-(5-{[1-(difluoromethyl)cyclopropyl]amino}-2H-pyrazolo[3,4-d][1,3]thiazol-2-yl)-3,5-dimethylphenol] | 840 | > 10 | – |
| Cc1cc(C)c(-n2cc3sc(NC4CCN(C(=O)C5(C#N)CC5)C4)nc3n2)c(O)c1 (centres unmarked) [Example 99, 1-(3-{[2-(2-hydroxy-4,6-dimethylphenyl)-2H-pyrazolo[3,4-d][1,3]thiazol-5-yl]amino}pyrrolidine-1-carbonyl)cyclopropane-1-carbonitrile] | 250 | > 30 | – |
| Cc1cc(C)c(-n2cc3sc(N[C@H]4CCN(C)C(=O)C4)nc3n2)c(O)c1 [Example 136, (4S)-4-{[2-(2-hydroxy-4,6-dimethylphenyl)-2H-pyrazolo[3,4-d][1,3]thiazol-5-yl]amino}-1-methylpiperidin-2-one] | 3300 | > 30 | – |
| Cc1cc(C)c(-n2cc3sc(N[C@H]4CC[C@H](O)CC4)nc3n2)c(O)c1 [Example 25, 2-{5-[(trans-4-hydroxycyclo-hexyl)amino]-2H-pyrazolo[3,4-d][1,3]thiazol-2-yl}-3,5-dimethylphenol] | 350 | > 10 | – |
| Cc1cc(C)c(-n2cc3sc(N[C@@H]4CCCN(CC(F)F)C4)nc3n2)c(O)c1 [Example 35, 2-(5-{[(3R)-1-(2,2-difluoroethyl)piperidin-3-yl]amino}-2H-pyrazolo[3,4-d][1,3]thiazol-2-yl)-3,5-dimethylphenol] | 68 | > 10 | – |

More lines, in order of falling IC50 (NLRP3 inflammasome), values ahead:

| IC50 (NLRP3 inflammasome) [nM] | IC50 (NF-κB pathway; [1]) [µM] | IC50 (NF-κB pathway; THP-1 macrophages) [µM] | Structure (SMILES) |
| --- | --- | --- | --- |
| 1500 | > 10 | – | COc1cc(C)c(-n2cc3sc(N[C@@H]4CN(C)C[C@H]4F)nc3n2)c(O)c1 [Example 134, 2-(5-{[(3R,4R)-4-fluoro-1-methylpyrrolidin-3-yl]amino}-2H-pyrazolo[3,4-d][1,3]thiazol-2-yl)-5-methoxy-3-methylphenol] |
| 560 | – | > 30 | Cc1cc(C)c(-n2cc3sc(N[C@@H]4C[C@@H](F)CN(C5CCOC5)C4)nc3n2)c(O)c1 (single isomer, unassigned) [Example 74, 2-[5-({(3R,5R)-5-fluoro-1-[(S)-oxolan-3-yl]piperidin-3-yl}amino)-2H-pyrazolo[3,4-d][1,3]thiazol-2-yl]-3,5-dimethylphenol or 2-[5-({(3R,5R)-5-fluoro-1-[(R)-oxolan-3-yl]piperidin-3-yl}amino)-2H-pyrazolo[3,4-d][1,3]thiazol-2-yl]-3,5-dimethylphenol (tR2)] |
| 280 | > 30 | – | Cc1cc(C)c(-n2cc3sc(NC4CCN(C(=O)C(C)(C)O)C4)nc3n2)c(O)c1 (centres unmarked) [Example 102, 2-hydroxy-1-(3-{[2-(2-hydroxy-4,6-dimethylphenyl)-2H-pyrazolo[3,4-d][1,3]thiazol-5-yl]amino}pyrrolidin-1-yl)-2-methylpropan-1-one] |
| 150 | > 10 | – | Cc1cc(C)c(-n2cc3sc(NC[C@@H](C)O)nc3n2)c(O)c1 [Example 34, 2-(5-{[(2R)-2-hydroxypropyl]amino}-2H-pyrazolo [3,4-d][1,3]thiazol-2-yl)-3,5-dimethylphenol] |
| 43 | > 30 | – | Cc1cc(C)c(-n2cc3sc(N[C@@H]4CCCN(C5CCOC5)C4)nc3n2)c(O)c1 (single isomer, unassigned) [Example 71, 3,5-dimethyl-2-[5-({(3R)-1-[(S)-oxolan-3-yl]piperidin-3-yl}amino)-2H-pyrazolo[3,4-d][1,3]thiazol-2-yl]phenol or 3,5-dimethyl-2-[5-({(3R)-1-[(R)-oxolan-3-yl]piperidin-3-yl}amino)-2H-pyrazolo[3,4-d][1,3]thiazol-2-yl]phenol (tR1)] |
| 29 | – | > 30 | Cc1cc(C)c(-n2cc3sc(N[C@@H]4CCCN(C5CCOC5)C4)nc3n2)c(O)c1 (single isomer, unassigned) [Example 72, 3,5-dimethyl-2-[5-({(3R)-1-[(S)-oxolan-3-yl]piperidin-3-yl}amino)-2H-pyrazolo[3,4-d][1,3]thiazol-2-yl]phenol or 3,5-dimethyl-2-[5-({(3R)-1-[(R)-oxolan-3-yl]piperidin-3-yl}amino)-2H-pyrazolo[3,4-d][1,3]thiazol-2-yl]phenol (tR2)] |
